Our source for the IC50 values is patent US10040781B2, “Tank-binding kinase inhibitor compounds” (Gilead Sciences, Inc., priority 2014, dated 2018).

Structures are written as SMILES.

For one experiment, the target named is IKKε (Homo sapiens (Human), UniProt Q14164). Nature of the experiment: IKKε TR-FRET enzymatic assay. It is filed as biochemical. Conditions: read-out: IKKe IC50.
Another experiment has as its target hJAK2 (Homo sapiens (Human), UniProt O60674). Nature of the experiment: hJAK2 LANCE TR-FRET enzymatic assay. It counts as biochemical. The settings on record: read-out: JAK2 IC50.
The next experiment has as its target TBK1 (Homo sapiens (Human), UniProt Q9UHD2). Nature of the experiment: TBK1 TR-FRET enzymatic assay.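 Note: phosphorylation of a biotinylated Ser/Thr peptide by purified full-length recombinant TBK1, read by TR-FRET after 240 min at 25 °C, IC50 is the geometric mean of at least four runs.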

Sequence of hJAK2 (O60674 whole entry): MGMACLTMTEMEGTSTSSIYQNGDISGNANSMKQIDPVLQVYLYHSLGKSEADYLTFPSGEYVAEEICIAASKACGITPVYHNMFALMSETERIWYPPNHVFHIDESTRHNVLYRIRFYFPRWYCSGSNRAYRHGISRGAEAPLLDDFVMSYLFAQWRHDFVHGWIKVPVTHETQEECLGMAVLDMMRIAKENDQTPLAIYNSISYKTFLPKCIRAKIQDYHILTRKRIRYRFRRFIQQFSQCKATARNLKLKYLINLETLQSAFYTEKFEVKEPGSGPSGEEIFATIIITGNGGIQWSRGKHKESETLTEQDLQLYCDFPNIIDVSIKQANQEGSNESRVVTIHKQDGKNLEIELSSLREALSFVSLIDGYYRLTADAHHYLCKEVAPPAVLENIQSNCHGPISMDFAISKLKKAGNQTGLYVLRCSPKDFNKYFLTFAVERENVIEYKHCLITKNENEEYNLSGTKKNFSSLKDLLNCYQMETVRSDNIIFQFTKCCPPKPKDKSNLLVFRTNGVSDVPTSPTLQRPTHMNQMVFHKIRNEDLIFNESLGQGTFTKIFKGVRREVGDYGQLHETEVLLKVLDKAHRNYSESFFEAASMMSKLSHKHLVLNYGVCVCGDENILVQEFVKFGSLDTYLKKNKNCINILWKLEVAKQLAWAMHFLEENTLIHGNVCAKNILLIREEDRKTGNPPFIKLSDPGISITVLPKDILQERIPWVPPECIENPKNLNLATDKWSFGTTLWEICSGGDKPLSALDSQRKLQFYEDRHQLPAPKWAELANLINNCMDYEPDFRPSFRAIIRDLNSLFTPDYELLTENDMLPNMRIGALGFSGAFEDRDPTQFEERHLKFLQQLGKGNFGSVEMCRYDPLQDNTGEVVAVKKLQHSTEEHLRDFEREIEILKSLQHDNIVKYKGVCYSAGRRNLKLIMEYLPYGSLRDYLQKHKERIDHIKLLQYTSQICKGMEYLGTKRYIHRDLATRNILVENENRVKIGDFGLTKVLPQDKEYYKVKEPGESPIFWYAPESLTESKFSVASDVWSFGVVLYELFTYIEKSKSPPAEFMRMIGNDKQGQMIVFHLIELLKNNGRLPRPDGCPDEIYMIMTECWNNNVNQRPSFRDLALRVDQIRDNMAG
Sequence of IKKε (Q14164 whole entry): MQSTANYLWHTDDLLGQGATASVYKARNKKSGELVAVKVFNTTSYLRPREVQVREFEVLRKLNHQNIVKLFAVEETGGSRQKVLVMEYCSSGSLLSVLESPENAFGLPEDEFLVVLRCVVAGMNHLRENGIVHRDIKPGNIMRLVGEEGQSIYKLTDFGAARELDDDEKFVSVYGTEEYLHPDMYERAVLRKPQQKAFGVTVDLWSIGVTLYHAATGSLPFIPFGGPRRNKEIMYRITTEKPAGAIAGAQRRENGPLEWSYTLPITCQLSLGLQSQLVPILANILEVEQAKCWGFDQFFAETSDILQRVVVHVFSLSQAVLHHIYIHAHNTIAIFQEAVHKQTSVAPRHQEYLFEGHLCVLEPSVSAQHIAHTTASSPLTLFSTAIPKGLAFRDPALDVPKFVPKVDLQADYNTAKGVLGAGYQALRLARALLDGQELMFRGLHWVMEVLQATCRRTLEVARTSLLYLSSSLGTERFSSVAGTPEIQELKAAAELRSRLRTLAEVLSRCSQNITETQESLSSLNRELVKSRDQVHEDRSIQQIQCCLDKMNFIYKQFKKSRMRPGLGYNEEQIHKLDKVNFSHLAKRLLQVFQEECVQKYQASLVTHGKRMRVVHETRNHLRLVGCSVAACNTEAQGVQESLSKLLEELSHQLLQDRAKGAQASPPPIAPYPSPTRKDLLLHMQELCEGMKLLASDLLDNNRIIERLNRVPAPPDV
Sequence of TBK1 (Q9UHD2 whole entry): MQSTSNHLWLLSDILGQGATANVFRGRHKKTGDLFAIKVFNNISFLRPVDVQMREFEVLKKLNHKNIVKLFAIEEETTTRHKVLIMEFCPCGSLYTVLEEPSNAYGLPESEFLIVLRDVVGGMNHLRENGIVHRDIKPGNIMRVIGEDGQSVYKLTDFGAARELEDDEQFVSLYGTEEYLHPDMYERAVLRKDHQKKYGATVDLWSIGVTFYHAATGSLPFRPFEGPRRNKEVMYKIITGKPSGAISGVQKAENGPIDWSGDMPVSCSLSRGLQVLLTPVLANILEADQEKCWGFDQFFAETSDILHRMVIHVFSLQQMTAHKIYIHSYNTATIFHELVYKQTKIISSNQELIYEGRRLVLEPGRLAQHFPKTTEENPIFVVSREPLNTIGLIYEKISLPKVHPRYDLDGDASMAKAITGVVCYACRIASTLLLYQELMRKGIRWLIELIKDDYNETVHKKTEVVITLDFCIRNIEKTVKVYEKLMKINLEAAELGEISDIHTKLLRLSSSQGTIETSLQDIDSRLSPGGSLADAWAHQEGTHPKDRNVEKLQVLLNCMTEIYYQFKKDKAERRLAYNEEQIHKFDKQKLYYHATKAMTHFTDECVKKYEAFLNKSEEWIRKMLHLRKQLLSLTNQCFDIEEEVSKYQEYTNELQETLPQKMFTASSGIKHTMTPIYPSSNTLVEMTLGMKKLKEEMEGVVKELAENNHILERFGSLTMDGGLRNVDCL

On to `N#Cc1cc(-c2ncnc(Nc3ccc(N4CCN(C5COC5)CC4)cc3)n2)cc(F)c1O[C@H]1CCN(C(=O)CO)C[C@H]1F` [Example 329, 3-fluoro-2-(((3R,4S)-3-fluoro-1-(2-hydroxyacetyl)piperidin-4-yl)oxy)-5-(4-((4-(4-(oxetan-3-yl)piperazin-1-yl)phenyl)amino)-1,3,5-triazin-2-yl)benzonitrile], for which the IC50 at IKKε was 3 nM; at hJAK2 it was 648 nM; on TBK1, 4 nM.
Taken in the same sequence, the figures for `N#CCC(=O)N1CC[C@H](Oc2c(F)cc(-c3ncnc(Nc4ccc(N5CCN(C6COC6)CC5)cc4)n3)cc2C#N)[C@H](F)C1` [Example 330, 2-(((3R,4S)-1-(2-cyanoacetyl)-3-fluoropiperidin-4-yl)oxy)-3-fluoro-5-(4-((4-(4-(oxetan-3-yl)piperazin-1-yl)phenyl)amino)-1,3,5-triazin-2-yl)benzonitrile] were 6 nM, 941 nM and 4 nM.
Taken in the same sequence, the figures for `N#Cc1cc(-c2ncnc(Nc3ccc(N4CCN(C5COC5)CC4)cc3)n2)cc(F)c1O[C@H]1CCN(C(=O)CCO)C[C@H]1F` [Example 331, 3-fluoro-2-(((3R,4S)-3-fluoro-1-(3-hydroxypropanoyl)piperidin-4-yl)oxy)-5-(4-((4-(4-(oxetan-3-yl)piperazin-1-yl)phenyl)amino)-1,3,5-triazin-2-yl)benzonitrile] were 14 nM, 943 nM and 7 nM.
In the same order, the values of `N#Cc1cc(-c2ncnc(Nc3ccc(OCCN4CCCC4)cc3)n2)ccc1OC1CCOCC1` [Example 332, 5-(4-((4-(2-(pyrrolidin-1-yl)ethoxy)phenyl)amino)-1,3,5-triazin-2-yl)-2-((tetrahydro-2H-pyran-4-yl)oxy)benzonitrile] are 5 nM, 943 nM and 10 nM.
For `N#Cc1cc(-c2ncnc(Nc3ccc(N4CCN(C5COC5)CC4)cc3)n2)ccc1O[C@H]1CCN(C(=O)[C@@H]2COC(=O)N2)C[C@H]1F` [Example 333, 2-(((3R,4S)-3-fluoro-1-((S)-2-oxooxazolidine-4-carbonyl)piperidin-4-yl)oxy)-5-(4-((4-(4-(oxetan-3-yl)piperazin-1-yl)phenyl)amino)-1,3,5-triazin-2-yl)benzonitrile], the 50% inhibitory concentration (IC50) at IKKε is 3 nM; on hJAK2 it was 233 nM; on TBK1 it was 2 nM.
In the same order, the values of `N#Cc1cc(-c2ncnc(Nc3ccc(N4CCN(C5COC5)CC4)cc3)n2)ccc1O[C@H]1CCN(C(=O)c2nc(N)n[nH]2)C[C@H]1F` [Example 334, 2-(((3R,4S)-1-(3-amino-1H-1,2,4-triazole-5-carbonyl)-3-fluoropiperidin-4-yl)oxy)-5-(4-((4-(4-(oxetan-3-yl)piperazin-1-yl)phenyl)amino)-1,3,5-triazin-2-yl)benzonitrile] are 2 nM, 80 nM and 16 nM.
Taken in the same sequence, the figures for `CC(=O)N[C@@H](C)C(=O)N1CC[C@H](Oc2ccc(-c3ncnc(Nc4ccc(N5CCN(C6COC6)CC5)cc4)n3)cc2C#N)[C@H](F)C1` [Example 335, N—((S)-1-((3R,4S)-4-(2-cyano-4-(4-((4-(4-(oxetan-3-yl)piperazin-1-yl)phenyl)amino)-1,3,5-triazin-2-yl)phenoxy)-3-fluoropiperidin-1-yl)-1-oxopropan-2-yl)acetamide] were 834 nM, 478 nM and 508 nM.
Taken in the same sequence, the figures for `N#Cc1cc(-c2ncnc(Nc3ccc(N4CCN(C5COC5)CC4)cc3)n2)ccc1O[C@H]1CCN(C(=O)c2ccncn2)C[C@H]1F` [Example 337, 2-(((3R,4S)-3-fluoro-1-(pyrimidine-4-carbonyl)piperidin-4-yl)oxy)-5-(4-((4-(4-(oxetan-3-yl)piperazin-1-yl)phenyl)amino)-1,3,5-triazin-2-yl)benzonitrile] were 7 nM, 572 nM and 4 nM.
Turning to `N#Cc1cc(-c2ncnc(Nc3ccc(N4CCN(C5COC5)CC4)cc3)n2)ccc1O[C@H]1CCN(C(=O)c2ccnnc2)C[C@H]1F` [Example 338, 2-(((3R,4S)-3-fluoro-1-(pyridazine-4-carbonyl)piperidin-4-yl)oxy)-5-(4-((4-(4-(oxetan-3-yl)piperazin-1-yl)phenyl)amino)-1,3,5-triazin-2-yl)benzonitrile], the IC50 on IKKε was 18 nM; on hJAK2, 131 nM; at TBK1, 9 nM.
In the same order, the values of `N#Cc1cc(-c2ncnc(Nc3ccc(N4CCN(C5COC5)CC4)cc3)n2)ccc1O[C@H]1CCN(C(=O)c2nccnc2N)C[C@H]1F` [Example 339, 2-(((3R,4S)-1-(3-aminopyrazine-2-carbonyl)-3-fluoropiperidin-4-yl)oxy)-5-(4-((4-(4-(oxetan-3-yl)piperazin-1-yl)phenyl)amino)-1,3,5-triazin-2-yl)benzonitrile] are 58 nM, 54 nM and 14 nM.
Taken in the same sequence, the figures for `N#Cc1cc(-c2ncnc(Nc3ccc(N4CCN(C5COC5)CC4)cc3)n2)ccc1O[C@H]1CCN(C(=O)c2cncc(N)n2)C[C@H]1F` [Example 340, 2-(((3R,4S)-1-(6-aminopyrazine-2-carbonyl)-3-fluoropiperidin-4-yl)oxy)-5-(4-((4-(4-(oxetan-3-yl)piperazin-1-yl)phenyl)amino)-1,3,5-triazin-2-yl)benzonitrile] were 9 nM, 122 nM and 4 nM.
Taken in the same sequence, the figures for `C[C@H](O)C(=O)N1CC[C@H](Oc2ccc(-c3ncnc(Nc4ccc(N5CC(C)(O)C5)cc4)n3)cc2C#N)[C@H](F)C1` [Example 342, 2-(((3R,4S)-3-fluoro-1-((S)-2-hydroxypropanoyl)piperidin-4-yl)oxy)-5-(4-((4-(3-hydroxy-3-methylazetidin-1-yl)phenyl)amino)-1,3,5-triazin-2-yl)benzonitrile] were 1 nM, 496 nM and 2 nM.
For the compound `Cn1ncc2ccc(Nc3ncnc(-c4ccc(O[C@H]5CCN(C(=O)CO)C[C@H]5F)c(C#N)c4)n3)cc21` [Example 343, 2-(((3R,4S)-3-fluoro-1-(2-hydroxyacetyl)piperidin-4-yl)oxy)-5-(4-((1-methyl-1H-indazol-6-yl)amino)-1,3,5-triazin-2-yl)benzonitrile], the IC50 at IKKε came out at 2 nM; at hJAK2 it was 258 nM; against TBK1 it was 4 nM.
In the same order, the values of `C[C@H](O)C(=O)N1CC[C@H](Oc2ccc(-c3ncnc(Nc4ccc5cnn(C)c5c4)n3)cc2C#N)[C@H](F)C1` [Example 344, 2-(((3R,4S)-3-fluoro-1-((S)-2-hydroxypropanoyl)piperidin-4-yl)oxy)-5-(4-((1-methyl-1H-indazol-6-yl)amino)-1,3,5-triazin-2-yl)benzonitrile] are 5 nM, 707 nM and 7 nM.
Taken in the same sequence, the figures for `Cc1nn(C)c2cc(Nc3ncnc(-c4ccc(O[C@H]5CCN(C(=O)CO)C[C@H]5F)c(C#N)c4)n3)ccc12` [Example 346, 5-(4-((1,3-dimethyl-1H-indazol-6-yl)amino)-1,3,5-triazin-2-yl)-2-(((3R,4S)-3-fluoro-1-(2-hydroxyacetyl)piperidin-4-yl)oxy)benzonitrile] were 1 nM, 511 nM and 3 nM.
